Source: ChEMBL document CHEMBL5505992, “Novel membrane-targeting isoxanthohumol-amine conjugates for combating methicillin-resistant Staphylococcus aureus (MRSA) infections” (Eur J Med Chem, 2024)
Calls of active or inactive are those of the source. The rule behind the calls is not given here.

Key:
[1] = tested on: Staphylococcus aureus; experiment: Bactericidal activity against methicillin-resistant Staphylococcus aureus incubated with 3 to 6 hrs compound treated plasma; assay type: functional; settings: time 3-6 hrs
[2] = tested on: Cell membrane; experiment: Induction of cytoplasmic membrane depolarization in methicillin-resistant Staphylococcus aureus clinical isolate MRSA-16 assessed as increase in fluorescence intensity at 8 to 32 ug/ml measured every 2 mins for 20 mins by SYTOX green staining based analysis; assay type: cell membranes; settings: dose 8-32 µg/ml
[3] = tested on: Staphylococcus aureus; experiment: Antibacterial activity against methicillin-resistant Staphylococcus aureus infected in Kunming mouse skin infection model assessed as effect on skin abscesses in dorsal surface at 4 mg/kg,sc measured after 24 hrs; assay type: functional, organism-based
[4] = tested on: Cell membrane; experiment: Disruption of cell membrane in methicillin-resistant Staphylococcus aureus clinical isolate MRSA-16 assessed as increase in intracellular DNA leakage incubated for 4 hrs by microspectrophotometer analysis; assay type: cell membranes
[5] = Toxicity in Kunming mouse assessed as effect on heart at 10 mg/kg, sc measured after 24 hrs by H and E staining based analysis; assay type: organism-based; settings: in vivo
[6] = Toxicity in Kunming mouse assessed as histopathological abnormalities in skin at 10 mg/kg, sc measured after 24 hrs by H and E staining based analysis; assay type: organism-based; settings: in vivo
[7] = tested on: Staphylococcus aureus; experiment: Antibacterial activity against Staphylococcus aureus ATCC 29213 measured after 16 to 18 hrs by CLSI method; assay type: functional; settings: time 16-18 hrs
[8] = tested on: Staphylococcus aureus; experiment: Antibacterial activity against methicillin-resistant Staphylococcus aureus infected in Kunming mouse skin infection model assessed as appearance of small number of infiltrated inflammatory cells in skin dermis at 8 mg/kg,sc measured after 24 hrs; assay type: functional, organism-based
[9] = tested on: Cell membrane; experiment: Disruption of cell membrane in methicillin-resistant Staphylococcus aureus clinical isolate MRSA-16 assessed as increase in intracellular ROS production at upto 64 ug/ml measured after 40 mins by DCFH-DA dye based fluorescence assay; assay type: cell membranes; settings: dose <= 64.0 µg/ml
[10] = tested on: Staphylococcus aureus; experiment: Antibacterial activity against Staphylococcus aureus ATCC 29213 measured after 20 passages for 16 to 18 hrs; assay type: functional; settings: time 16-18 hrs
[11] = tested on: Escherichia coli; experiment: Antibacterial activity against Escherichia coli ATCC25922 measured after 16 to 18 hrs by CLSI method; assay type: functional; settings: time 16-18 hrs
[12] = Toxicity in Kunming mouse assessed as animal death at 20 mg/kg, sc measured after 24 hrs; assay type: organism-based; settings: in vivo
[13] = tested on: Cell membrane; experiment: Induction of cell membrane permeability in methicillin-resistant Staphylococcus aureus clinical isolate MRSA-16 assessed as increase in damaged cells (Q2 region) at 64 ug/ml incubated for 2 hrs by SYTO 9 and PI staining based flow cytometry analysis (reference value: 0.91%); assay type: cell membranes; settings: dose 64.0 µg/ml
[14] = tested on: Staphylococcus aureus; experiment: Antibacterial activity against methicillin-resistant Staphylococcus aureus infected in Kunming mouse skin infection model assessed as decrease in bacterial load at 4 mg/kg,sc measured after 24 hrs; assay type: functional
[15] = tested on: Staphylococcus aureus; experiment: Induction of morphological changes in methicillin-resistant Staphylococcus aureus clinical isolate MRSA-16 assessed as ruptured cell surface at 16 ug/ml incubated for 4 hrs by SEM analysis; assay type: functional, organism-based; settings: dose 16.0 µg/ml
[16] = tested on: Staphylococcus aureus; experiment: Antibacterial activity against methicillin-resistant Staphylococcus aureus clinical isolate MRSA-13 measured after 16 to 18 hrs by CLSI method; assay type: functional; settings: time 16-18 hrs
[17] = Toxicity in Kunming mouse assessed as histopathological abnormalities in heart at 10 mg/kg, sc measured after 24 hrs by H and E staining based analysis; assay type: organism-based; settings: in vivo
[18] = tested on: Staphylococcus aureus; experiment: Antibacterial activity against methicillin-resistant Staphylococcus aureus infected in Kunming mouse skin infection model assessed as decrease in bacterial load at 8 mg/kg,sc measured after 24 hrs relative to control; assay type: functional; set-up: scale not given: the % may be the effect or the level left
[19] = tested on: Cell membrane; experiment: Induction of cell membrane permeability in methicillin-resistant Staphylococcus aureus clinical isolate MRSA-16 assessed as dead cells (Q1 region) at 8 ug/ml incubated for 2 hrs by SYTO 9 and PI staining based flow cytometry analysis (reference value: 0.00%); assay type: cell membranes; settings: dose 8.0 µg/ml
[20] = tested on: Cell membrane; experiment: Induction of cell membrane depolarization in methicillin-resistant Staphylococcus aureus clinical isolate MRSA-16 assessed as fold increase in fluorescence intensity at 32 ug/ml measured every 2 mins for 20 mins by DISC3(5) staining based analysis; assay type: cell membranes; settings: dose 32.0 µg/ml
[21] = tested on: Cell membrane; experiment: Disruption of cell membrane in methicillin-resistant Staphylococcus aureus clinical isolate MRSA-16 assessed as increase in intracellular protein leakage incubated for 4 hrs by microspectrophotometer analysis; assay type: cell membranes
[22] = Toxicity in Kunming mouse assessed as effect on skin at 10 mg/kg, sc measured after 24 hrs by H and E staining based analysis; assay type: organism-based; settings: in vivo
[23] = tested on: Staphylococcus aureus; experiment: Antibacterial activity against methicillin-resistant Staphylococcus aureus in presence of phosphatidylglycerol; assay type: functional, organism-based
[24] = tested on: Cell membrane; experiment: Induction of cell membrane permeability in methicillin-resistant Staphylococcus aureus clinical isolate MRSA-16 assessed as dead cells (Q1 region) at 32 ug/ml incubated for 2 hrs by SYTO 9 and PI staining based flow cytometry analysis (reference value: 0.00%); assay type: cell membranes; settings: dose 32.0 µg/ml
[25] = Toxicity in Kunming mouse assessed as histopathological abnormalities in kidney at 4 to 8 mg/kg, sc measured after 24 hrs by H and E staining based analysis; assay type: organism-based; settings: in vivo, dose 4-8 mg/kg
[26] = tested on: Cell membrane; experiment: Disruption of cell membrane integrity in methicillin-resistant Staphylococcus aureus clinical isolate MRSA-16 assessed as increase in red fluorescence at 2 ug/ml incubated for 4 hrs by DAPI and PI staining based confocal microscopy analysis; assay type: cell membranes; settings: dose 2.0 µg/ml
[27] = Toxicity in Kunming mouse assessed as adverse effect at 5 to 10 mg/kg, sc measured after 24 hrs; assay type: organism-based; settings: in vivo, dose 5-10 mg/kg
[28] = tested on: Cell membrane; experiment: Induction of cell membrane permeability in methicillin-resistant Staphylococcus aureus clinical isolate MRSA-16 assessed as decrease in intact cells (Q3 region) at 32 ug/ml incubated for 2 hrs by SYTO 9 and PI staining based flow cytometry analysis (reference value: 99.07%); assay type: cell membranes; set-up: scale not given: the % may be the effect or the level left; settings: dose 32.0 µg/ml
[29] = tested on: Cell membrane; experiment: Induction of cytoplasmic membrane depolarization in methicillin-resistant Staphylococcus aureus clinical isolate MRSA-16 assessed as fold increase in fluorescence intensity at 32 ug/ml measured every 2 mins for 20 mins by SYTOX green staining based analysis; assay type: cell membranes; settings: dose 32.0 µg/ml
[30] = tested on: Cell membrane; experiment: Induction of cell membrane permeability in methicillin-resistant Staphylococcus aureus clinical isolate MRSA-16 assessed as decrease in intact cells (Q3 region) at 64 ug/ml incubated for 2 hrs by SYTO 9 and PI staining based flow cytometry analysis (reference value: 99.07%); assay type: cell membranes; set-up: scale not given: the % may be the effect or the level left; settings: dose 64.0 µg/ml
[31] = tested on: Staphylococcus aureus; experiment: Antibacterial activity against methicillin-resistant Staphylococcus aureus clinical isolate MRSA-14 measured after 16 to 18 hrs by CLSI method; assay type: functional; settings: time 16-18 hrs
[32] = Cytotoxicity against human L02 cells assessed as cell viability at 32 ug/ml by CCK-8 method relative to control; assay type: toxicity, cell-based; settings: at 32 µg/mL, read-out: Activity
[33] = tested on: Staphylococcus aureus; experiment: Antibacterial activity against methicillin-resistant Staphylococcus aureus clinical isolate MRSA-23 measured after 16 to 18 hrs by CLSI method; assay type: functional; settings: time 16-18 hrs
[34] = Toxicity in Kunming mouse assessed as animal death at 5 to 10 mg/kg, sc measured after 24 hrs; assay type: organism-based; settings: in vivo, dose 5-10 mg/kg
[35] = Toxicity in Kunming mouse assessed as histopathological abnormalities in lung at 10 mg/kg, sc measured after 24 hrs by H and E staining based analysis; assay type: organism-based; settings: in vivo

CCCC[N+](C)(CCCC)CCCCCOc1ccc(C2CC(=O)c3c(OC)cc(OCCCCC[N+](C)(CCCC)CCCC)c(CC=C(C)C)c3O2)cc1.[I-].[I-] (stereo not given)
MBC [1]: 4 µg/mL | Activity [2]: Active | Activity [3]: Active | Activity [4]: Active | Activity [5]: Non-Toxic | Activity [6]: Non-Toxic | MIC [7]: 1 µg/mL | Activity [8]: Active | Activity [9]: Active | MIC [10]: 1 µg/mL | MIC [11]: 16 µg/mL | Activity [12]: Toxic | Activity [13]: 0.02% | Activity [14]: 3.2 log10CFU/g | Activity [15]: Active | MIC [16]: 0.25 µg/mL | Activity [17]: Non-Toxic | Activity [18]: 99.99% | Activity [19]: 2.94% | fold change (FC) [20]: 4.5 | Activity [21]: Active | Activity [22]: Non-Toxic | Activity [23]: Active | Activity [24]: 99.2% | Activity [25]: Non-Toxic | Activity [26]: Active | Activity [27]: Non-Toxic | Activity [28]: 0.02% | fold change (FC) [29]: 7 | Activity [30]: 0% | MIC [31]: 0.25 µg/mL | viability at 32 ug/ml [32]: 72% | MIC [33]: 0.25 µg/mL | Activity [34]: Non-Toxic | Activity [35]: Non-Toxic
